ChEMBL document CHEMBL4627340, “Design, synthesis, and biological activity of new endomorphin analogs with multi-site modifications” (Bioorg Med Chem, 2020)
The source made the active and inactive calls. The rule behind the calls is not given here.

Key:
Mus musculus [1] = assay: Antinociceptive activity in kunming mouse models assessed as maximum possible effect at 0.4 nmol, icv measured from 5 to 60 mins by warm water tail-flick assay relative to control; assay type: functional
Mu-type opioid receptor [2] = molecular target: T1, Mu-type opioid receptor (Homo sapiens, UniProt P35372); assay: Agonist activity at mu opioid receptor (unknown origin) expressed in human HEK293 cells assessed as […] in cAMP accumulation using [3H]-cAMP as substrate measured after 30mins by liquid scintillation counting method; assay type: functional, cell-based
T1 sequence (P35372 whole entry): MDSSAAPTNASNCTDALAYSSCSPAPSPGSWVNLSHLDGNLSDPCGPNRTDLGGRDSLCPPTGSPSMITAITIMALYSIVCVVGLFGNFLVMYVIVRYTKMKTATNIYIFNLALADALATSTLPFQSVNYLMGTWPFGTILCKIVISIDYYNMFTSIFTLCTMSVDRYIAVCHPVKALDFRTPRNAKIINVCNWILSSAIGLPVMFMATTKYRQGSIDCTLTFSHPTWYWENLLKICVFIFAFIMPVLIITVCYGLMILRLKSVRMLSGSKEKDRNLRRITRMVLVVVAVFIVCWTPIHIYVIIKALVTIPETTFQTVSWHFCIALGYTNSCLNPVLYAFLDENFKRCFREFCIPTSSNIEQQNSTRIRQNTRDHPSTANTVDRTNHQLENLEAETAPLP

Mu-type opioid receptor [3] = molecular target: T1, Mu-type opioid receptor; assay: Agonist activity at mu opioid receptor (unknown origin) expressed in human HEK293 cells assessed as […] in cAMP accumulation using [3H]-cAMP as substrate measured after 30mins by liquid scintillation counting method relative to control; assay type: functional, cell-based
Mus musculus [4] = assay: Antinociceptive activity in kunming mouse models of formalin-induced hyperalgesia assessed as reduction in time spent on paw biting inflammatory phase at 0.04 nmol, icv measured during phase 1 at 0 to 5 mins relative to control; assay type: functional; set-up: scale not given: the % may be the effect or the level left
Mus musculus [5] = assay: Antinociceptive activity in kunming mouse models of acetic-acid-induced writhing assessed as inhibition of writhing numbers at 0.04 nmol, icv pretreated for 5 mins followed by acetic-acid treatment and measured for 20 mins relative to control; assay type: functional; set-up: scale not given: the % may be the effect or the level left
Mu-type opioid receptor [6] = molecular target: Mu-type opioid receptor (Rattus norvegicus, UniProt P33535); assay: Displacement of [3H]-DAMGO from Wistar rat mu opioid receptor incubated for 1 hr by liquid scintillation counting method
Chain of Mu-type opioid receptor (Rattus norvegicus, UniProt P33535) (P33535 whole entry): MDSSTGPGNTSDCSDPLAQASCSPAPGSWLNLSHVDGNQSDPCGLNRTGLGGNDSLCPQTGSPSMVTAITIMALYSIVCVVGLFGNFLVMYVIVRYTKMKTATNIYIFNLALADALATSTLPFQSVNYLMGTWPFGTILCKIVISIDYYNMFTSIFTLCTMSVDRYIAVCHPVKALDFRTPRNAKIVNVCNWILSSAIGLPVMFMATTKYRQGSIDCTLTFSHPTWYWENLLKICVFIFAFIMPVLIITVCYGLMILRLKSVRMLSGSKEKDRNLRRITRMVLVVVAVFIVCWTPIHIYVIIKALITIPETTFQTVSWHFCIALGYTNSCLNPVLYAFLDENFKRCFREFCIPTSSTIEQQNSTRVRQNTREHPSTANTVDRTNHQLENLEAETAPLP

Mus musculus [7] = assay: Antinociceptive activity in icv administered kunming mouse models of formalin-induced hyperalgesia assessed reduction in time spent on paw shaking during inflammatory phase 2 at 15 to 30 mins; assay type: functional; set-up: scale not given: the % may be the effect or the level left
[8] = Toxicity in kunming mouse assessed as reduction in number of fecal pellet at 1 to 10 mg/kg, iv after 1 hr; assay type: organism-based; settings: in vivo
Mus musculus [9] = assay: Antinociceptive activity in kunming mouse models assessed as effective dose after icv administration measured from 5 to 60 mins by warm water tail-flick assay; assay type: functional
Mus musculus [10] = assay: Antinociceptive activity in kunming mouse models assessed as effective dose after iv administration by warm water tail-flick assay; assay type: functional
Mus musculus [11] = assay: Antinociceptive activity in kunming mouse models assessed as maximum possible effect at 10 mg/kg, iv measured after 5 to 60 mins co-treated with naloxone by warm water tail-flick assay; assay type: functional, organism-based
Mus musculus [12] = assay: Antinociceptive activity in kunming mouse models of formalin-induced hyperalgesia assessed as reduction in time spent on paw biting inflammatory phase at 4 nmol, icv measured during phase 2 at 15 to 30 mins relative to control; assay type: functional; set-up: scale not given: the % may be the effect or the level left
Mus musculus [13] = assay: Antinociceptive activity in icv administered kunming mouse models of formalin-induced hyperalgesia assessed reduction in pain response of paw licking during inflammatory phase 2 at 15 to 30 mins; assay type: functional, organism-based
Mus musculus [14] = assay: Antinociceptive activity in kunming mouse models of formalin-induced hyperalgesia assessed as reduction in pain response of paw licking inflammatory phase at 4 nmol, icv measured during phase 1 at 0 to 5 mins relative to control; assay type: functional; set-up: scale not given: the % may be the effect or the level left
Mus musculus [15] = assay: Antinociceptive activity in kunming mouse models of formalin-induced hyperalgesia assessed as reduction in time spent on paw biting inflammatory phase at 4 nmol, icv measured during phase 1 at 0 to 5 mins relative to control; assay type: functional; set-up: scale not given: the % may be the effect or the level left
Mus musculus [16] = assay: Antinociceptive activity in kunming mouse models of acetic-acid-induced writhing assessed as inhibition of writhing numbers at 3 mg/kg, iv pretreated for 5 mins followed by acetic-acid treatment and measured for 20 mins; assay type: functional, organism-based
Mus musculus [17] = assay: Antinociceptive activity in iv dosed kunming mouse models of formalin-induced hyperalgesia assessed as reduction in pain response of paw licking measured up to 60 mins; assay type: functional, organism-based
[18] = Toxicity in kunming mouse assessed as reduction in fecal dry weight at 1 to 10 mg/kg, iv after 1 hr; assay type: organism-based; settings: in vivo
Mus musculus [19] = assay: Antinociceptive activity in kunming mouse models of formalin-induced hyperalgesia assessed as reduction in pain response of paw licking inflammatory phase at 4 nmol, icv measured during phase 2 at 15 to 30 mins relative to control; assay type: functional; set-up: scale not given: the % may be the effect or the level left
Mus musculus [20] = assay: Antinociceptive activity in kunming mouse models of formalin-induced hyperalgesia assessed as reduction in pain response of paw licking inflammatory phase at 0.04 nmol, icv measured during phase 1 at 0 to 5 mins relative to control; assay type: functional; set-up: scale not given: the % may be the effect or the level left
Mus musculus [21] = assay: Antinociceptive activity in kunming mouse models of formalin-induced hyperalgesia assessed as reduction in time spent on paw shaking inflammatory phase at 4 nmol, icv measured during phase 1 at 0 to 5 mins relative to control; assay type: functional; set-up: scale not given: the % may be the effect or the level left
[22] = Neurotoxicity in kunming mouse models assessed as effect in locomotor activity at 10 mg/kg,iv measured up to 60 mins by rotarod test; assay type: toxicity, organism-based; settings: in vivo, 1 h
Mus musculus [23] = assay: Antinociceptive activity in kunming mouse models assessed as maximum possible effect at 4 nmol, icv measured from 5 to 60 mins by warm water tail-flick assay relative to control; assay type: functional
Mus musculus [24] = assay: Antinociceptive activity in icv administered kunming mouse models of formalin-induced hyperalgesia assessed reduction in time spent on paw biting during inflammatory phase 2 at 15 to 30 mins; assay type: functional; set-up: scale not given: the % may be the effect or the level left
Mus musculus [25] = assay: Antinociceptive activity in kunming mouse models assessed as maximum possible effect at 3 mg/kg, iv measured after 5 to 60 mins by warm water tail-flick assay; assay type: functional
[26] = molecular target: Delta-type opioid receptor (Rattus norvegicus, UniProt P33533); assay: Displacement of [3H]-DPDPE from Wistar rat delta opioid receptor incubated for 3 hrs by liquid scintillation counting method
Chain of Delta-type opioid receptor (P33533 whole entry): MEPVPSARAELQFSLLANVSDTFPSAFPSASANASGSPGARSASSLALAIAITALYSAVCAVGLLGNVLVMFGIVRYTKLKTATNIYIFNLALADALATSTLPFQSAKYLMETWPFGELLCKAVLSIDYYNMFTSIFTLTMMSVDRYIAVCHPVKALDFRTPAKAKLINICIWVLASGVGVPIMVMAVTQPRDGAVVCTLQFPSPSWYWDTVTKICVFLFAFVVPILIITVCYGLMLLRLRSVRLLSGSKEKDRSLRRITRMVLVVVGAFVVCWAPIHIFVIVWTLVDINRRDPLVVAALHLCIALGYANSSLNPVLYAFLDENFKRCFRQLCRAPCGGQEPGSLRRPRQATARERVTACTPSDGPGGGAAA

[27] = Half life in Kunming mouse brain homogenate at 10^-2 mol/L by RP-HPLC analysis; assay type: ADME, tissue-based
[28] = Half life in Kunming mouse serum at 10^-2 mol/L by RP-HPLC analysis; assay type: ADME, cell-free
Mus musculus [29] = assay: Antinociceptive activity in kunming mouse models of formalin-induced hyperalgesia assessed as reduction in time spent on paw shaking inflammatory phase at 0.04 nmol, icv measured during phase 1 at 0 to 5 mins relative to control; assay type: functional; set-up: scale not given: the % may be the effect or the level left
Mus musculus [30] = assay: Antinociceptive activity in kunming mouse models of formalin-induced hyperalgesia assessed as reduction in time spent on paw shaking inflammatory phase at 4 nmol, icv measured during phase 2 at 15 to 30 mins relative to control; assay type: functional; set-up: scale not given: the % may be the effect or the level left

C=C(C(N)=O)[C@@H](NC(=O)[C@H](Cc1c[nH]c2ccccc12)NC(=O)[C@@H](CCCNC(N)=O)NC(=O)[C@@H](N)Cc1ccc(O)cc1)c1ccco1
MPE (Mus musculus [1]): 100% | EC50 (Mu-type opioid receptor [2]): 164 nM | Emax (Mu-type opioid receptor [3]): 78.9% | Activity (Mus musculus [4]): 100% | Activity (Mus musculus [5]): 100% | Ki (Mu-type opioid receptor [6]): 5.82 nM | Activity (Mus musculus [7]): 100% | Activity [8]: Toxic | ED50 (Mus musculus [9]): 0.037 nmol | ED50 (Mus musculus [10]): 2.59 nmol | Activity (Mus musculus [11]): inactive | Activity (Mus musculus [12]): 100% | Activity (Mus musculus [13]): Dose-dependent effect | Activity (Mus musculus [14]): 100% | Activity (Mus musculus [15]): 100% | Activity (Mus musculus [16]): Active | Activity (Mus musculus [17]): Dose-dependent effect | Activity [18]: Toxic | Activity (Mus musculus [19]): 100% | Activity (Mus musculus [20]): 100% | Activity (Mus musculus [21]): 100% | Activity [22]: Non-Toxic | Activity (Mus musculus [23]): 100% | Activity (Mus musculus [24]): 100% | MPE (Mus musculus [25]): 51.2% | Ki [26]: > 10 µM | half-life [27]: > 300 min | half-life [28]: > 300 min | Activity (Mus musculus [29]): 100% | Activity (Mus musculus [30]): 100%

C=C(C(N)=O)[C@@H](NC(=O)[C@H](Cc1c[nH]c2ccccc12)NC(=O)[C@@H](CCCCNC(C)=O)NC(=O)[C@@H](N)Cc1ccc(O)cc1)c1ccco1
EC50 (Mu-type opioid receptor [2]): 934 nM | Emax (Mu-type opioid receptor [3]): 37.5% | Ki (Mu-type opioid receptor [6]): 9.21 nM | Ki [26]: 3.58 µM

C=C(C(N)=O)[C@@H](NC(=O)[C@H](Cc1c[nH]c2ccccc12)NC(=O)[C@@H](CCN)NC(=O)[C@@H](N)Cc1ccc(O)cc1)c1ccco1
EC50 (Mu-type opioid receptor [2]): 161 nM | Emax (Mu-type opioid receptor [3]): 75.5% | Ki (Mu-type opioid receptor [6]): 32.4 nM | Ki [26]: > 10 µM

C=C(C(N)=O)[C@@H](NC(=O)[C@H](Cc1ccccc1)NC(=O)[C@@H](CCCNC(=N)N)NC(=O)[C@@H](N)Cc1ccc(O)cc1)c1ccco1
MPE (Mus musculus [1]): 86.9% | EC50 (Mu-type opioid receptor [2]): 370 nM | Emax (Mu-type opioid receptor [3]): 74.2% | Ki (Mu-type opioid receptor [6]): 19.2 nM | ED50 (Mus musculus [9]): 0.054 nmol | Activity (Mus musculus [23]): 100% | Ki [26]: 0.922 µM | half-life [27]: > 300 min | half-life [28]: > 300 min

C=C(C(N)=O)[C@@H](NC(=O)[C@H](Cc1ccccc1)NC(=O)[C@@H](CN)NC(=O)[C@@H](N)Cc1ccc(O)cc1)c1ccco1
EC50 (Mu-type opioid receptor [2]): 1500 nM | Emax (Mu-type opioid receptor [3]): 62.3% | Ki (Mu-type opioid receptor [6]): 53 nM | Ki [26]: > 10 µM

C=C(C(N)=O)[C@@H](NC(=O)[C@H](Cc1c[nH]c2ccccc12)NC(=O)[C@@H](CCCCN)NC(=O)[C@@H](N)Cc1ccc(O)cc1)c1ccco1
EC50 (Mu-type opioid receptor [2]): 1130 nM | Emax (Mu-type opioid receptor [3]): 65.8% | Ki (Mu-type opioid receptor [6]): 172 nM | Ki [26]: > 10 µM

C=C(C(N)=O)[C@@H](NC(=O)[C@H](Cc1c[nH]c2ccccc12)NC(=O)[C@@H](CN)NC(=O)[C@@H](N)Cc1ccc(O)cc1)c1ccco1
EC50 (Mu-type opioid receptor [2]): 192 nM | Emax (Mu-type opioid receptor [3]): 81.5% | Ki (Mu-type opioid receptor [6]): 5.47 nM | Ki [26]: > 10 µM

C=C(C(N)=O)[C@@H](NC(=O)[C@H](Cc1c[nH]c2ccccc12)NC(=O)[C@@H](CCCCNC(=N)N)NC(=O)[C@@H](N)Cc1ccc(O)cc1)c1ccco1
EC50 (Mu-type opioid receptor [2]): 341 nM | Emax (Mu-type opioid receptor [3]): 76.5% | Ki (Mu-type opioid receptor [6]): 405 nM | Ki [26]: > 10 µM

C=C(C(N)=O)[C@@H](NC(=O)[C@H](Cc1c[nH]c2ccccc12)NC(=O)[C@@H](CCC)NC(=O)[C@@H](N)Cc1ccc(O)cc1)c1ccco1
EC50 (Mu-type opioid receptor [2]): 337 nM | Emax (Mu-type opioid receptor [3]): 67.6% | Ki (Mu-type opioid receptor [6]): 34.4 nM | Ki [26]: 2.66 µM
